Assay results from patent US12492173B2, “Herbicidal substituted N-tetrazolyl aryl carboxamides” (Bayer Aktiengesellschaft, priority 2019, dated 2025).

Assays:
Assay type in all cases: in vivo
Matricaria inodora = experiment: Pre-emergence herbicidal action, MATIN; conditions: dosage 320 g/ha; for herbicidal activity MATIN: scored visually after 3 weeks vs untreated controls (100% = plants have died)
Method in brief: (§1)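 Seeds were covered with sandy loam soil, then received a pre-emergence surface spray of the WP- or EC-formulated compound. After 3 weeks under good greenhouse growth conditions, damage was scored visually in percent.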

Avena fatua = experiment: Post-emergence herbicidal action, AVEFA; parameters: key: % herbicidal action vs untreated; 100 = plants died, 0 = like control
Method in brief: (§2)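 Treatment: post-emergence spray, one-leaf stage. Medium: sandy loam, greenhouse. Carrier: 600–800 l/ha water, 0.2% wetting agent. Read-out: visual % activity at ~3 weeks, untreated plants as reference.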

Setaria viridis = experiment: Post-emergence herbicidal action, SETVI; parameters: key: % herbicidal action vs untreated; 100 = plants died, 0 = like control; conditions: for Herbicidal action against SETVI: comparative experiment, 5 g of a.i./ha
Method in brief: as §2

Pharbitis purpurea = experiment: Post-emergence herbicidal action, PHBPU
Method in brief: as §2

Polygonum convolvulus = experiment: Pre-emergence herbicidal action, POLCO; conditions: dosage 320 g/ha; for herbicidal activity POLCO: scored visually after 3 weeks vs untreated controls (100% = plants have died)
Method in brief: as §1

Viola tricolor = experiment: Pre-emergence herbicidal action, VIOTR; conditions: dosage 320 g/ha; for herbicidal activity VIOTR: scored visually after 3 weeks vs untreated controls (100% = plants have died)
Method in brief: as §1

SMILES	herbicidal activity MATIN (Matricaria inodora)	Herbicidal action against AVEFA (Avena fatua; comparative experiment, post-emergence, 5 g of a.i./ha)	herbicidal action AVEFA (Avena fatua; post-emergence, dosage 80 g/ha)	Herbicidal action against SETVI (Setaria viridis; post-emergence)	herbicidal action SETVI (Setaria viridis; post-emergence, dosage 80 g/ha)	herbicidal action PHBPU (Pharbitis purpurea; post-emergence, dosage 80 g/ha)	herbicidal activity POLCO (Polygonum convolvulus)	herbicidal activity VIOTR (Viola tricolor)	herbicidal action AVEFA (Avena fatua; Dosage 80 g/ha)	herbicidal action SETVI (Setaria viridis; Dosage 80 g/ha)	herbicidal action PHBPU (Pharbitis purpurea; Dosage 80 g/ha)	herbicidal action MATIN (Matricaria inodora)	herbicidal action POLCO (Polygonum convolvulus)	herbicidal action VIOTR (Viola tricolor)
CCSCc1c(C(F)F)ccc(C(=O)Nc2nnnn2C)c1Cl [Example 1-323]	90%	70	100%	100	100%	100%	100%	100%	–	–	–	–	–	–
CCn1nnnc1NC(=O)c1ccc(C(F)F)c(CS(C)(=O)=O)c1Cl [Example 2-322]	90%	–	80%	–	100%	90%	100%	100%	–	–	–	–	–	–
Cn1nnnc1NC(=O)c1ccc(C(F)(F)F)c(CSC2CC2)c1Cl [Example 1-302]	100%	–	100%	–	100%	100%	100%	100%	–	–	–	–	–	–
CCn1nnnc1NC(=O)c1ccc(C(F)F)c(CSC)c1Cl [Example 2-320]	100%	–	–	–	–	–	90%	100%	90	100	90	–	–	–
CCCn1nnnc1NC(=O)c1ccc(C(F)(F)F)c(CSCC)c1C [Example 3-86]	–	–	–	–	–	–	–	–	80	90	90	100%	90%	100%
Cn1nnnc1NC(=O)c1ccc(C(F)(F)F)c(CS(C)(=O)=O)c1C(F)(F)C(F)(F)F [Example 1-552]	100%	–	–	–	–	–	90%	100%	90	80	100	–	–	–
CCCn1nnnc1NC(=O)c1ccc(C(F)(F)F)c(CS(C)(=O)=O)c1SC [Example 3-163]	100%	–	–	–	–	–	80%	100%	90	90	90	–	–	–
Cn1nnnc1NC(=O)c1ccc(C(F)(F)F)c(CS(=O)(=O)C2CC2)c1Cl [Example 1-304]	100%	–	100%	–	90%	100%	100%	100%	–	–	–	–	–	–
CCSCc1c(C(F)(F)F)ccc(C(=O)Nc2nnnn2CC)c1Cl [Example 2-299]	100%	–	100%	–	100%	90%	90%	100%	–	–	–	–	–	–
CSCc1c(C(F)F)ccc(C(=O)Nc2nnnn2C)c1Cl [Example 1-320]	100%	–	–	100	–	–	90%	100%	100	100	90	–	–	–
CCn1nnnc1NC(=O)c1ccc(C(F)(F)F)c(CSCCOC)c1Cl [Example 2-305]	100%	–	80%	–	100%	100%	100%	100%	–	–	–	–	–	–
CC[S+]([O-])Cc1c(C(F)(F)F)ccc(C(=O)Nc2nnnn2C)c1Cl (racemic) [Example 1-300]	100%	–	100%	–	90%	90%	100%	100%	–	–	–	–	–	–
CCCn1nnnc1NC(=O)c1ccc(C(F)F)c(CS(C)(=O)=O)c1Cl [Example 3-322]	100%	–	–	–	–	–	100%	100%	80	80	90	–	–	–
CCn1nnnc1NC(=O)c1ccc(C(F)(F)F)c(C[S+]([O-])CC)c1Br (stereo not drawn) [Example 2-384]	100%	–	90%	–	90%	90%	90%	100%	–	–	–	–	–	–
CCn1nnnc1NC(=O)c1ccc(C(F)F)c(C[S+]([O-])CC)c1Cl (stereo not drawn) [Example 2-324]	100%	–	100%	–	90%	100%	100%	100%	–	–	–	–	–	–
CCn1nnnc1NC(=O)c1ccc(C(F)(F)F)c(CSCC(F)(F)F)c1Cl [Example 2-311]	100%	–	–	–	–	–	80%	100%	90	100	90	–	–	–
CSc1c(C(=O)Nc2nnnn2C)ccc(C(F)F)c1C[S+](C)[O-] (stereo not drawn) [Example 1-171]	100%	–	–	–	–	–	100%	100%	–	100	90	–	–	–
CCn1nnnc1NC(=O)c1ccc(C(F)(F)F)c(CS(C)(=O)=O)c1Cl [Example 2-298]	100%	–	–	–	–	–	90%	100%	100	90	90	–	–	–
Cc1c(C(=O)Nc2nnnn2C)ccc(C(F)F)c1C[S+](C)[O-] (stereo not drawn) [Example 1-108]	–	–	–	–	–	–	–	–	–	80	90	90%	90%	100%
CCn1nnnc1NC(=O)c1ccc(C(F)(F)F)c(C[S+]([O-])CC)c1Cl (stereo not drawn) [Example 2-300]	100%	–	100%	–	100%	90%	100%	100%	–	–	–	–	–	–
CCn1nnnc1NC(=O)c1ccc(C(F)F)c(CSC)c1SC [Example 2-170]	100%	–	–	–	–	–	100%	100%	–	90	90	–	–	–
Cc1ccc(C(=O)Nc2nnnn2C)c(Cl)c1C[S+](C)[O-] (racemic) [Example 1-288]	–	–	–	–	–	–	–	–	–	100	90	100%	80%	90%
CCn1nnnc1NC(=O)c1ccc(C(F)F)c(C[S+](C)[O-])c1SC (stereo not drawn) [Example 2-171]	100%	–	–	–	–	–	90%	100%	–	90	100	–	–	–
CCCn1nnnc1NC(=O)c1ccc(C(F)F)c(CSC)c1SC [Example 3-170]	100%	–	–	–	–	–	90%	100%	80	–	90	–	–	–
